The text below walks through data of patent US20090023801A1, “INHIBITORS OF BETA AMYLOID PRODUCTION” (Wyeth, priority 2007, published 2009).

The subject of one series is Aβ40. The series is described as follows: Aβ-lowering MSD electrochemiluminescent assay of conditioned media from CHO cells expressing human APP (Aβ40). In kind it is cell-based. Particulars: MSD electrochemiluminescent assay, hAPP-REPNL751 CHO cells; read-out: Aβ40 EC50 for inhibition of Aβ40. The procedure:
(§1) The activity of compounds in lowering the generation of Aβ40 and Aβ42, the most abundant forms of beta amyloid, from APP (amyloid precursor protein) was measured in an electrochemiluminescent (ECL) assay of conditioned media from chinese hamster ovary (CHO) cells stably expressing the human amyloid precursor protein (APP) reporter construct, hAPP-REPNL751 (Sughir, R. et al.; J. Biolog. Chem (1992) 267: 25602-25608). Aβ peptides were secreted at high levels into cell culture media by cells carrying the human APP transgene; compounds were tested for their capacity to modulate this production. The Aβ peptide in the conditioned medium was quantitated by a sandwich immunoassay with the MSD ECL detection system. Cell metabolism was measured using a 3-(4,5-dimethylthiazol-2-yl)-5-(3-carboxymethoxypheny)-2-(4-sulfophenyl)-2H-tetrazolium, inner salt (MTS) salt kit (which measures the mitochondrial activity of cells by the bioreduction of Owen's reagent). This assay consists of the following protocol:
(§2) 1. hAPP-REPNL751CHO cells were seeded into 96 well plates and incubated until about 60-70% confluence.
(§3) 2. Medium was removed, cells were washed, and fresh serum-free medium (Ultraculture) was put on cells.
(§4) 3. Compounds were diluted and then added to the cell medium.
(§5) 4. Cells were incubated, with compounds, for indicated times.
(§6) 5. Streptavidin coated Meso Scale Discover (MSD) plates (MSD standard MULTI-ARRAY® 96 plate, cat.# P11SA-1) were washed […] with TTBS (Tris-buffered saline, the TWEEN® 20 reagent).
(§7) 6. 20 μL conditioned medium were removed from the cells and added to the TTBS prewashed MSD plates.
(§8) 7. Standard curve dilutions of synthetic Aβ40 and Aβ42 were prepared and added to the MSD plates.
(§9) 8. A reagent mix was prepared in 1% MSD Blocker A (appropriate concentration of biotinylated 6E10 antibody, detection antibodies to Aβ40, Aβ42, and MSD ruthinylated tag antibody).
(§10) 9. 20 μL reagent mix was distributed to sample plate.
(§11) 10. Plates were incubated with shaking overnight at 4° C.
(§12) 11. Plates were washed 3× with TTBS.
(§13) 12. 150 μL read buffer was added per well (MSD® Read Buffer T, cat#R92TC-2, made 1× with distilled water).
(§14) 13. Plates were read in a MSD® plate reader within 2 hours.
(§15) Assays were accepted or rejected based upon specific performance criteria, including regression coefficient of standard curve, adequate signal to noise ratio, sample signals lying within the range of the standard curve, etc.: the specific parameters were established for each tissue type prior to performing an assay, and were included in the full analytical procedure.
(§16) Plate data from both assays (MTS and MSD® ELISA) were transferred into a Microsoft EXCEL® spreadsheet to determine the toxicity, and inhibition caused by the compounds. Standard curves of Aβ were generated using LSW™ toolbar Hill slope model 42, with 1/y weighting (general sigmoidal curve with Hill slope, a to d; y=(a−d)/(1+(x/c)̂b)+d). Inhibition data were expressed as a percent of the average of the Aβ values in the vehicle treated wells (all values are background subtracted), using LSW™ toolbar Hill Slope model 68 (ligand-receptor binding/sigmoidal, with Hill slope and Bmax to 0; y=Bmax*(1−(x̂n/(K̂n+x̂n))), after raw values were translated/transformed into absolute Aβ values utilizing the standard curve generated as described above (e.g. back calculate absolute Aβ values from the raw values utilizing standard curve). Onboard controls to verify assay performance were checked to assure that amyloid is within linear detection range of the assay, that cells were expressing correctly, and that the MSD itself was performing according to quality control (QC) standards.
(§17) % Inhibition>50% may be considered a positive response or an interesting result in this assay; EC50 determination were determined.
(§18) The beta amyloid inhibitory activity of compounds of formula (I) was determined using the MSD ECL assay. Inhibition of Notch processing was measured using the stable transfection reporter assay See, Table 1 below.

For a further series, the system named is Aβ42. The series is described as follows: Aβ-lowering MSD electrochemiluminescent assay of conditioned media from CHO cells expressing human APP (Aβ42). Particulars: MSD electrochemiluminescent assay, hAPP-REPNL751 CHO cells; read-out: Aβ42 EC50 for inhibition of Aβ42. In kind it is cell-based. The procedure: as §1, §2, §3, §4, §5, §6, §7, §8, §9, §10, §11, §12, §13, §14, §15, §16, §17, §18

The next series has as its system Notch. The series is described as follows: Stable transfection Notch reporter assay (HES1-SEAP, P8H6 CHO-K1 cells). In kind it is cell-based. To be noted: stable transfection Notch reporter assay, 48 hours, read-out: Notch EC50 for inhibition of Notch.
Excerpt: A concern with compounds that lower beta amyloid synthesis by targeting the γ-secretase enzyme is that this enzyme also is involved in the cleavage of other substrates besides APP especially the Notch substrate. […] Thus, a selectivity of APP cleavage over Notch cleavage is desired in order to avoid G.I. side effects. The activity of compounds in cleaving Notch can be measured in a whole cell functional Notch assay. This is an assay to determine the effects of compounds on the S3 (γ-secretase like) processing of Notch. […] SEAP transactivation is then detected by luminescent assay. The assay consists of the following protocol:
• (i) Materials: The P8H6 inducible stable cell line was derived from T-REX™ CHO-K1, stably expressing Tet repressor, Notch (pZX1) and HES1-SEAP (pZX2) reporter constructs. A Wallac 1450 Victor™ Luminescence Counter was used to measure luminescent signal. All other materials and reagents were of highest quality available and were all from commercial sources.
(ii) Construct Description: • pZX1: Mouse Notch1 with deleted extracellular domain cloned at Hind III/Xho I sites of pcDNA5/TO vector: Ampicillin Resistance for bacteria, hygromycin resistance for cells. • pZX2: Mouse HES1 promoter together with reporter gene SEAP cloned at Not I/Apa I sites of pcDNA3.1 with deletion of CMV promoter.
(iii) Procedure: • 1. P8H6 cells were grown in Ham's F12 complete growth media containing 10% FBS (reduced tetracycline), 2 mM of L-glutamine, 1 mg/mL of hygromycin, 1 mg/mL of the GENETICIN® antibiotic, 10 μg/mL of Blasticidin and 1% Penicillin-Streptomycin were supplemented with doxycline with final induction concentration of 0.2 μg/mL. The cells were seeded in 96-well tissue culture plate at 8000/well. • 2. Test compounds in 0.2% DMSO/25 mM HEPES buffer were diluted at final working concentration of 20 μM, 6.7 μM, 2.2 μM, 741 nM, 247 nM, 82 nM, 27 nM, 9 nM and 3 nM. Diluted compounds then were added to P8H6 cells in 96-well tissue culture plates. For vehicle samples, the same volume of 0.2% DMSO/25 mM HEPES buffer was added. • 3. Cells were incubated at 37° C., 5% CO2 for 48 hours. • 4. SEAP levels in the conditioned media were assessed using the Clontech GREATESCAPE™ SEAP Chemiluminescence detection kit according to the manufacturer's instruction. Briefly, 15 μL of conditioned media were mixed with 45 μL of the dilution buffer and incubated at 65° C. for 45 minutes. After cooling, assay buffer was added and the sample was incubated with the CSPD® substrate. • 5. Luminescence was measured in a Wallac 1450 VICTOR™ luminescence counter.
EC50 was the compound concentration that was estimated to provide a 50% reduction of maximum response in Notch induced SEAP levels. An EC50 from a given assay may only be used for averaging if it has met the following criteria: • 1. There is a lower dose in the assay which gives a % Notch Activity>60% (bracketing lower dose). • 2. There is a higher dose in the assay which gives a % Notch Activity<30% (bracketing higher dose), and the maximum inhibition is reached (e.g., a given compound might achieve 80% inhibition (% Notch activity is about 20%) over several doses, and therefore 20% would be considered the maximum inhibition.
Data were analyzed in Microsoft EXCEL® format. EC50 was calculated by LSW using sigmoidal inhibition from B0 to nsb model (model 59). Each assay plate contained a dose response curve for the reference compound 5-chloro-N-[(1S,2R)-2-ethyl-4,4,4-trifluoro-1-(hydroxymethyl)butyl]thiophene-2-sulfonamide. This compound is discussed in International Patent Publication No. WO 2004/092155. The following data is not shown in that publication.
as §18

Like-named read-outs stand apart in the source and are kept apart here.

In turn, `O=S(=O)(N[C@H](CO)[C@@H](c1ccccc1)C(F)(F)F)c1ccc(Cl)cc1` [Example 6, 4-Chloro-N-[(1S,2R)-3,3,3-trifluoro-1-(hydroxymethyl)-2-phenylpropyl]benzenesulfonamide] gave a melting point of 129 to 131 °C. Moreover, in the series on Aβ40, the EC50 worked out at 1.33 µM. In addition, the 50% effective concentration (EC50) with Aβ42 is 1.9 µM. Besides, the EC50 with Notch (CHO-K1) was above 20 µM.
With `O=S(=O)(N[C@@H](CO)[C@@H](c1cc(F)cc(F)c1)C(F)(F)F)c1ccc(Cl)s1.O=S(=O)(N[C@H](CO)[C@H](c1cc(F)cc(F)c1)C(F)(F)F)c1ccc(Cl)s1` (relative stereo) [Example 7, 5-Chloro-N-[(1S*,2S*)-2-(3,5-difluorophenyl)-3,3,3-trifluoro-1-(hydroxymethyl)propyl]thiophene-2-sulfonamide and 5-chloro-N-[(1R*,2R*)-2-(3,5-difluorophenyl)-3,3,3-trifluoro-1-(hydroxymethyl)propyl]thiophene-2-sulfonamide], the EC50 was 7.29 µM in the series with Aβ40, 8.75 µM in the series with Aβ42 and above 20 µM in the series with Notch.
On to `O=S(=O)(N[C@H](CO)[C@@H](c1cccc(F)c1)C(F)(F)F)c1ccc(Cl)s1` (relative stereo) [Example 12, 5-Chloro-N-[(1S*,2R*)-3,3,3-trifluoro-2-(3-fluorophenyl)-1-(hydroxymethyl)propyl]thiophene-2-sulfonamide], for which the EC50 with Aβ40 worked out at 0.098 µM; in the series on Aβ42, 0.098 µM; in the series with Notch (CHO-K1), 1.74 µM.
Regarding `O=S(=O)(NC(CO)C(c1ccccc1)C(F)(F)F)c1ccc(Cl)s1` (stereo not shown) [Example 1, 5-Chloro-N-[3,3,3-trifluoro-1-(hydroxymethyl)-2-phenylpropyl]thiophene-2-sulfonamide], the EC50 was 0.71 µM in the series with Aβ40, 0.76 µM in the series on Aβ42 and above 20 µM in the series with Notch (CHO-K1).
